Laboratory results published in patent publication US20240368565A1, “COMPLEMENTATION-BASED TAGS AND REPORTERS FOR DUAL-MODALITY LABELING” (Promega Corporation, priority 2023, published 2024).
Several values for one entry are separate records, joined by “and”; a condition that tells them apart may be missing. Identical values can stand only once. Peptide text beside a SMILES is read from it. * marks the point of attachment. Biotin = O=C1N[C@H]2[C@H](CS[C@H]2CCCCC(=O)*)N1

What was measured:
[1] = biological target: HaloTag[22-297](M2F + D53G + K140E)-12xGly/Ser-LgBiT-3xGly/Ser-6xHis (Rhodococcus rhodochrous, UniProt P0A3G2, A155T/A167V/A172T/A224E/C128F/C176G/D73G/D78G/E257K/H272N/K175M/K195N/L47V/L88M/N227D/S58T/T264A/Y273L/Y87F); test: biochemical; type: binding
HaloTag[22-297](M2F + D53G + K140E)-12xGly/Ser-LgBiT-3xGly/Ser-6xHis, sequence (P0A3G2 23-290 with tags or gaps with the stated changes): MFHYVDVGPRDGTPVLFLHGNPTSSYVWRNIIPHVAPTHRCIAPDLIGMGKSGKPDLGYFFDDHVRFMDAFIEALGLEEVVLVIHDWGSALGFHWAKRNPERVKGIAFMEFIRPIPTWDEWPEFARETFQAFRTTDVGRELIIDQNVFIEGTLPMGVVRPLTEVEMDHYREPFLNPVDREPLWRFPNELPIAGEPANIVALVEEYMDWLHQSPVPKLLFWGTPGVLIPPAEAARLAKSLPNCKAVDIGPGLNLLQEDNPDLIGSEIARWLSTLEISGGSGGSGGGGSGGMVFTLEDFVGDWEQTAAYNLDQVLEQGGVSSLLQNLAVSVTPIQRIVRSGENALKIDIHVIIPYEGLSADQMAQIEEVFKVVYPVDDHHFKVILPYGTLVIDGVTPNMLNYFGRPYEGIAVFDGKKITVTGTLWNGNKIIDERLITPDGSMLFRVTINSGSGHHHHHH

[2] = biological target: HaloTag[22-297](M2F + K140E)-12xGly/Ser-LgBiT-3xGly/Ser-6xHis (Rhodococcus rhodochrous, UniProt P0A3G2, A155T/A167V/A172T/A224E/C128F/C176G/D78G/E257K/H272N/K175M/K195N/L47V/L88M/N227D/S58T/T264A/Y273L/Y87F); test: biochemical; type: binding; settings: KD, biotinylated peptide on streptavidin probes, PBST, 25° C.
HaloTag[22-297](M2F + K140E)-12xGly/Ser-LgBiT-3xGly/Ser-6xHis, sequence (P0A3G2 23-290 with tags or gaps with the stated changes): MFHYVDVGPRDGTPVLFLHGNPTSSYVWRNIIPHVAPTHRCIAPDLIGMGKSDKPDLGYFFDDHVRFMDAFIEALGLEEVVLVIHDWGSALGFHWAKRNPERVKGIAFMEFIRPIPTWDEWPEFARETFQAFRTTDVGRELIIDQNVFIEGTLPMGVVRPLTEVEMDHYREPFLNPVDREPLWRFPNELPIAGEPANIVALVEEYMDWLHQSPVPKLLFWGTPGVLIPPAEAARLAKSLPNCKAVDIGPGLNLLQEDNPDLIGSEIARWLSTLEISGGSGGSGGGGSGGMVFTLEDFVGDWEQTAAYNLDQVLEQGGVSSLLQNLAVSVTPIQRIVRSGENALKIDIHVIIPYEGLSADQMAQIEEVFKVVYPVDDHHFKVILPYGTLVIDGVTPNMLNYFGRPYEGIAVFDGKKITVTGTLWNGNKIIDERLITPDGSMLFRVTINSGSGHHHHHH

[3] = biological target: HaloTag[22-297](M2F + D53G + V177E)-12xGly/Ser-LgBiT-3xGly/Ser-6xHis (Rhodococcus rhodochrous, UniProt P0A3G2, A155T/A167V/A172T/A224E/C128F/C176G/D73G/D78G/E160K/E257K/H272N/K175M/K195N/L47V/L88M/N227D/S58T/T264A/V197E/Y273L/Y87F); test: biochemical; type: binding
HaloTag[22-297](M2F + D53G + V177E)-12xGly/Ser-LgBiT-3xGly/Ser-6xHis, sequence (P0A3G2 23-290 with tags or gaps with the stated changes): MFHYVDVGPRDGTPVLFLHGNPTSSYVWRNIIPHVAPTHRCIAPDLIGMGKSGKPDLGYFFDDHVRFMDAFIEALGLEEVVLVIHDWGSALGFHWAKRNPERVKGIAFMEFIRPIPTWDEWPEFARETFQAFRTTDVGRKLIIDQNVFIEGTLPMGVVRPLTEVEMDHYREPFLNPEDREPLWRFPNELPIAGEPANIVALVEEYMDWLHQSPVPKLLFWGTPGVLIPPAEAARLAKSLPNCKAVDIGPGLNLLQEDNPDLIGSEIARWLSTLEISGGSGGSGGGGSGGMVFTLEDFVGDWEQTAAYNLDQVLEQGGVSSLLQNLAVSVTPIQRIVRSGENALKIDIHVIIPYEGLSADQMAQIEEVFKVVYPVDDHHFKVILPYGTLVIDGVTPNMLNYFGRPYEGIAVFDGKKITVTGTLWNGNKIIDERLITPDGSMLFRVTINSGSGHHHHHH

[4] = biological target: HaloTag[22-297](M2F)-12xGly/Ser-LgBiT-3xGly/Ser-6xHis (Rhodococcus rhodochrous, UniProt P0A3G2, A155T/A167V/A172T/A224E/C128F/C176G/D78G/E160K/E257K/H272N/K175M/K195N/L47V/L88M/N227D/S58T/T264A/Y273L/Y87F); test: biochemical; type: binding
HaloTag[22-297](M2F)-12xGly/Ser-LgBiT-3xGly/Ser-6xHis, sequence (P0A3G2 23-290 with tags or gaps with the stated changes): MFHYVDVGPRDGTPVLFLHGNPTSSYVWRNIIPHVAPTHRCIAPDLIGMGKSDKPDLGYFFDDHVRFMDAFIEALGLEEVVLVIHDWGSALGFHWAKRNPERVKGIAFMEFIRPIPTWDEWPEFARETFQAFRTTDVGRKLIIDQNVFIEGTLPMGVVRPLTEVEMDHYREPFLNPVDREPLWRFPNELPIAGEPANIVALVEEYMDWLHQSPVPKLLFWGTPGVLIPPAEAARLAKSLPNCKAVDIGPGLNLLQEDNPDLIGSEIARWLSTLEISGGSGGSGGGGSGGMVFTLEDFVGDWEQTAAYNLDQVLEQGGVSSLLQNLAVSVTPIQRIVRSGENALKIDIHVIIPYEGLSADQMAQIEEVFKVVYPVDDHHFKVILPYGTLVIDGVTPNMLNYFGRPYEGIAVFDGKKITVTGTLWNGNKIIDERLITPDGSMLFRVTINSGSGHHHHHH

[5] = biological target: HaloTag[22-297](M2F + F148M + V177E)-12xGly/Ser-LgBiT-3xGly/Ser-6xHis (Rhodococcus rhodochrous, UniProt P0A3G2, A155T/A167V/A172T/A224E/C128F/C176G/D78G/E160K/E257K/F168M/H272N/K175M/K195N/L47V/L88M/N227D/S58T/T264A/V197E/Y273L/Y87F); test: biochemical; type: binding
HaloTag[22-297](M2F + F148M + V177E)-12xGly/Ser-LgBiT-3xGly/Ser-6xHis, sequence (P0A3G2 23-290 with tags or gaps with the stated changes): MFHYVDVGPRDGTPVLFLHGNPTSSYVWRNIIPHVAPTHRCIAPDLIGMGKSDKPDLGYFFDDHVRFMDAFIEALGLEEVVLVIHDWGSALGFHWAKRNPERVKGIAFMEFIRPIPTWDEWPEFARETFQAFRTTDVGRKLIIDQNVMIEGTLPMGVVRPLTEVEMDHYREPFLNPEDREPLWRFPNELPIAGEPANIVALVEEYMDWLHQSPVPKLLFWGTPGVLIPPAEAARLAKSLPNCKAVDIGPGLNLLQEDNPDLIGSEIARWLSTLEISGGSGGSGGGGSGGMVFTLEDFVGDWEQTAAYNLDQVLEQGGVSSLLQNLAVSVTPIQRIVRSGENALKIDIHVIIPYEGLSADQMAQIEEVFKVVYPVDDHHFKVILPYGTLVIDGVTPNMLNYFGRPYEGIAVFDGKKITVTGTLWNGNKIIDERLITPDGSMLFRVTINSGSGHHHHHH

[6] = biological target: HaloTag[22-297](M2F)-12×Gly/Ser-LgBiT-6×His (Rhodococcus rhodochrous, UniProt P0A3G2, A155T/A167V/A172T/A224E/C128F/C176G/D78G/E160K/E257K/H272N/K175M/K195N/L47V/L88M/N227D/S58T/T264A/Y273L/Y87F); type: biochemical; settings: purified reporter, 30 minutes at 4° C., furimazine

Row | Compound | Kd [1] [nM] | Kd [2] | Kd [3] [nM] | Kd [4] [nM] | Kd [5] [nM] | Complementing the reporter to enhance luminescence signal [6]
1 | CC[C@H](C)[C@H](NC(=O)[C@H](CCCCN)NC(=O)[C@H](CCCCN)NC(=O)[C@H](Cc1ccccc1)NC(=O)[C@H](CC(C)C)NC(=O)[C@H](CCCNC(=N)N)NC(=O)[C@H](Cc1c[nH]c2ccccc12)NC(=O)CNC(=O)[C@H](CO)NC(=O)[C@@H](NC(=O)[C@H](CO)NC(=O)[C@@H](NC(=O)CNC(=O)[C@H](CO)NC(=O)CNC(=O)CNC(=O)CNC(=O)[C@H](CC(C)C)NC(=O)[C@@H](NC(=O)[C@H](CCC(=O)O)NC(=O)[C@@H](NC(=O)[C@H](Cc1ccc(O)cc1)NC(=O)[C@H](Cc1c[nH]cn1)NC(=O)[C@@H]1CCCN1C(=O)[C@H](CC(=O)O)NC(=O)[C@H](Cc1ccccc1)NC(=O)[C@@H]1CCCN1C(=O)[C@H](Cc1ccccc1)NC(=O)CNC(=O)[C@@H](NC(=O)CNC(=O)[C@H](CCCNC(=N)N)NC(=O)[C@H](CCC(=O)O)NC(=O)CCCC[C@@H]1SC[C@@H]2NC(=O)N[C@@H]21)[C@@H](C)O)C(C)C)C(C)C)C(C)C)C(C)C)C(=O)N[C@@H](CO)C(=O)O [HaloTag[3-19](I2R)-4xGly/Ser-VSHiBiT] (Biotin-ERGTGFPFDPHYVEVLGGGSGVSVSGWRLFKKIS-OH) | 0.576 | 0.684 nM and 0.466 nM | 0.669 | 1.61 | 0.509 | 
2 | CC[C@H](C)[C@H](NC(=O)[C@H](CCC(=O)O)NC(=O)CCCC[C@@H]1SC[C@@H]2NC(=O)N[C@@H]21)C(=O)NCC(=O)N[C@H](C(=O)N[C@@H](CCCNC(=N)N)C(=O)N[C@@H](Cc1ccccc1)C(=O)N1CCC[C@H]1C(=O)N[C@@H](Cc1ccccc1)C(=O)N[C@@H](CC(=O)O)C(=O)N1CCC[C@H]1C(=O)N[C@@H](Cc1c[nH]cn1)C(=O)N[C@@H](Cc1ccc(O)cc1)C(=O)N[C@H](C(=O)N[C@@H](CCC(=O)O)C(=O)N[C@H](C(=O)N[C@@H](CC(C)C)C(=O)NCC(=O)NCC(=O)NCC(=O)N[C@@H](CO)C(=O)NCC(=O)N[C@H](C(=O)N[C@@H](CO)C(=O)N[C@H](C(=O)N[C@@H](CO)C(=O)NCC(=O)N[C@@H](Cc1c[nH]c2ccccc12)C(=O)N[C@@H](CCCNC(=N)N)C(=O)N[C@@H](CC(C)C)C(=O)N[C@@H](Cc1ccccc1)C(=O)N[C@@H](CCCCN)C(=O)N[C@@H](CCCCN)C(=O)N[C@H](C(=O)N[C@@H](CO)C(=O)O)[C@@H](C)CC)C(C)C)C(C)C)C(C)C)C(C)C)[C@@H](C)O [HaloTag[3-19](G5R)-4xGly/Ser-VSHiBiT] (Biotin-EIGTRFPFDPHYVEVLGGGSGVSVSGWRLFKKIS-OH) |  |  |  |  | 0.485 | 
3 | CC[C@H](C)[C@H](NC(=O)[C@H](CCCCN)NC(=O)[C@H](CCCCN)NC(=O)[C@H](Cc1ccccc1)NC(=O)[C@H](CC(C)C)NC(=O)[C@H](CCCNC(=N)N)NC(=O)[C@H](Cc1c[nH]c2ccccc12)NC(=O)CNC(=O)[C@H](CO)NC(=O)[C@@H](NC(=O)[C@H](CO)NC(=O)[C@@H](NC(=O)CNC(=O)[C@H](CO)NC(=O)CNC(=O)CNC(=O)CNC(=O)[C@H](CC(C)C)NC(=O)[C@@H](NC(=O)[C@H](CCC(=O)O)NC(=O)[C@@H](NC(=O)[C@H](Cc1ccc(O)cc1)NC(=O)[C@H](Cc1c[nH]cn1)NC(=O)[C@@H]1CCCN1C(=O)[C@H](CC(=O)O)NC(=O)[C@H](Cc1ccccc1)NC(=O)[C@@H]1CCCN1C(=O)[C@H](Cc1ccccc1)NC(=O)CNC(=O)[C@@H](NC(=O)[C@H](CCCCN)NC(=O)[C@@H](NC(=O)[C@H](CCC(=O)O)NC(=O)CCCC[C@@H]1SC[C@@H]2NC(=O)N[C@@H]21)[C@@H](C)CC)[C@@H](C)O)C(C)C)C(C)C)C(C)C)C(C)C)C(=O)N[C@@H](CO)C(=O)O [HaloTag[3-19](G3K)-4xGly/Ser-VSHiBiT] (Biotin-EIKTGFPFDPHYVEVLGGGSGVSVSGWRLFKKIS-OH) |  | 0.264 nM |  |  | 0.102 | 
4 | KFNDQWNYRANFLKIRRVSVSGWRLFKKIS [Peptide 1061] |  |  |  |  |  | still functional
